# In patent US20250008959A1, “HERBICIDES AND USE THEREOF” (Projini Agchem LTD, priority 2021, published 2025):
# What was measured:
# Arabidopsis thaliana = test: Root elongation in plates (in planta root elongation assay); type: in vivo; conditions: 168 h, A. thaliana on MS medium plates, 7 days, read-out: Root-growth inhibition %
# Method: 6-well plates were prepared in a biological hood with sterile half Murashige and Skoog mineral medium (MS; Duchefa, Haarlem, Netherlands) containing 1% sucrose (w/v), pH 5.8. Tested molecules were dissolved in 50 mM DMSO and diluted to various concentrations 1,000-fold greater than the final desired concentration the MS medium maintaining a final concentration of 0.1% DMSO. MS medium with 0.1% DMSO was used as a negative control. After 7 days the plates were scanned and the root length was calculated using the imageJ software. […] Further sterilization was done by washing the seeds with 50% hypochlorite and 0.2% Triton x-100 for 10 minutes followed by five cycles of washing with sterile water. Six seeds were placed in each well, and the plates were covered and sealed with parafilm. Plates were placed vertically at 4° C. for two days and then transferred to a growth chamber for seven days (22-24° C.) at day/light cycles of 16/8 hours. Following the in vitro evaluation, selected molecules were tested for their ability to inhibit A. thaliana root elongation on agar plates. Seeds were plated on medium containing the molecules dissolved in the indicated concentrations and root length was measured after 6 or 7 days when the root in the non-treated plate reached the end of the well.
# [1] = biological target: T1, AtOASS (O-acetyl serine sulfhydrylase from Arabidopsis thaliana) (Arabidopsis thaliana, UniProt P47998); test: Isothermal titration calorimetry (ITC) binding to OASS; conditions: for Kd: OASS titrated into compound in ITC cell, single binding model
# T1 construct: GST (N, cleaved yes); made in house; host or cells: E. coli Rosetta (DE3)
# T1 sequence (P47998 whole entry): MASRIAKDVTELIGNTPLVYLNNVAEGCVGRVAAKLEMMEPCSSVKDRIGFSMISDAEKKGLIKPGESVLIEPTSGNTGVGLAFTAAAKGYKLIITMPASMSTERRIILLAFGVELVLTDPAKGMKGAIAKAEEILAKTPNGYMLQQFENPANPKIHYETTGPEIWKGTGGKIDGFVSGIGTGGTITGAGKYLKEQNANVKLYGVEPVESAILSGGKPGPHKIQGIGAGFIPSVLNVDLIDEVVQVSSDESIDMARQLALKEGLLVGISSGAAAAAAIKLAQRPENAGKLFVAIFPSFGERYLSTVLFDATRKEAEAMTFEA
# Excerpt: To evaluate the ability of the molecules to bind AtOASS (O-acetyl serine sulfhydrylase from Arabidopsis thaliana), the protein was placed in the ITC syringe and was titrated with the molecules that were placed in the ITC cell (see Examples section below). The direct dissociation binding constant (Kd) was then extracted from the binding curve using a single binding model, wherein a low Kd value corresponds to a stronger binding affinity.
# To evaluate the binding of the small molecules to the enzyme OASS, the purified protein was placed in a 6-8 MWCO dialysis bag in 30 mM phosphate buffer, 30 mM NaCl, 1 mM TCEP, and 5% dimethyl sulfoxide. Sequential buffer exchange dialyses were executed for 12 hours each at 4° C. until dilution of >10,000 was achieved. Before the execution of the ITC binding experiment, the OASS was placed in the ITC syringe at a concentration of 400 μM and each of the small molecules was dissolved in the same dialysis buffer to a final concentration of 40 μM in the ITC cell. ITC experiments were conducted by titrating the OASS to the compounds in the cell. The ITC binding constant was evaluated using the build-in analysis software.
# The designed de-novo herbicidal compounds were synthesized and evaluated for their in vitro and in planta activity. After dissolving the molecules to a stock of 50 mM in DMSO, binding and competition with the SAT-derived peptides were evaluated using ITC and FP. ITC measures the direct heat change occurring due to the interaction of a pair of molecules. ITC has certain advantages, such as the capability to detect a relatively broad range of binding affinities, being a label-free method, and providing a wide set of interaction parameters, such as affinity, stoichiometry, enthalpy, and entropy of binding. To evaluate the ability of the molecules to bind AtOASS, the protein was placed in the ITC syringe and was titrated with the molecules that were placed in the ITC cell. The direct dissociation binding constant (Kd) was then extracted from the binding curve using a single binding model. Two consecutive experiments were combined using the built in ITC module to enable better quantification. A low Kd value corresponds to a stronger binding affinity.
# [2] = biological target: T2, OASS-SAT complex (AtOASS with SAT-derived peptide) (Arabidopsis thaliana, UniProt P47998); test: Fluorescence polarization (FP) competition with FITC-labeled SAT-derived peptide bound to OASS; type: binding; conditions: competition with FITC-SAT peptide 200 nM, OASS 2.2 μM; for IC50: single site inhibition model
# T2 construct: GST (N, cleaved yes); made in house; host or cells: E. coli Rosetta (DE3)
# T2 sequence (P47998 whole entry, one chain of several): as the sequence (P47998 whole entry) above
# Method: Molecules were also tested for their ability to compete with the OASS binding to the SAT-derived peptide via a fluorescence polarization (FP) competition assay wherein the N-terminus labeled peptide was incubated with the AtOASS (see Examples section below). High FP values correspond to the peptide-bound state (low molecule concentrations) and low FP values correspond to the peptide-free state (low FP values). To extract the IC50, the FP data were fitted to a single site inhibition model in PRISM by GraphPad Software. The corresponding IC50 values were extracted, whereas low IC50 values correspond to molecule that better competes with the peptide binding to AtOASS. Fluorescence polarization (FP) measurements were made on samples arrayed in 96-well plates by using BioTek H1 Synergy instrument equipped with FP module. […] The peptide in a concentration of 200 nM was incubated with OASS at a concentration of 2.2 μM in each well. Variable concentrations of each molecule starting from 100 μM down to 0.048 μM were added to evaluate the ability of each molecule to compete off the FITC labeled peptide bound to OASS. Fluorescence experiments were executed with an Em/Exc wavelengths of 480/520 nm. All measurements were done in triplicate. Experimental polarization data from simple and competitive binding experiments were fitted using GraphPad Prism, with error bars representing SD. Molecules were also tested for their ability to compete with the OASS binding to the SAT-derived peptide via a fluorescence polarization (FP) competition assay. The N-terminus labeled peptide was incubated with the AtOASS in each of the wells in a 96-well plate. Various concentrations of the molecules were added and the FP values were recorded. High FP values correspond to the peptide-bound state (low molecule concentrations) and low FP values correspond to the peptide-free state (low FP values). To extract the IC50, the FP data were fitted to a single site inhibition model in graphpad prism. The corresponding IC50 values were extracted. Low IC50 values correspond to molecule that better competes with the peptide binding to AtOASS.
Kd [1],FP % inhibition [2],IC50 [2],direct binding to AtOASS by ITC (in vitro screening of purchased virtual hits) ([1]; result in words),SMILES,inhibition at 50 µM (Arabidopsis thaliana)
3.4 µM,32%,10 µM,–,O=C(O)c1ccccc1-c1ccccc1C(=O)Nc1cccc(NNc2nccs2)c1 [PJL-68],0%
0.32 µM,41%,1.9 µM,–,NCCc1ccc(-c2csc(NC(=O)c3ccccc3-c3ccccc3C(=O)O)n2)cc1 [PJL-107],29%
7.5 µM,14%,72 µM,–,O=C(O)c1cc2c(c(S(=O)(=O)Nc3ccc(OCc4ccccn4)c(Cl)c3)c1)CCC2 [PJS-39],2.3%
1.27 µM,32%,4.8 µM,–,O=C(Nc1cccc(NC(=O)c2ccccc2-c2ccccc2C(=O)O)c1)c1ccco1 [PJL-60],0%
1.77 µM,38%,4 µM,–,O=C(O)c1ccccc1-c1ccccc1C(=O)Nc1cccc(-c2nc3ccccc3[nH]2)c1 [PJL-65],0%
8.11 µM,34%,10.6 µM,–,O=C(O)c1ccccc1-c1ccccc1C(=O)Nc1cccc(C(F)(F)F)c1 [PJS-212],34%
18.3 µM,16%,–,–,O=C(O)c1cc2c(c(S(=O)(=O)Nc3cccc(-n4cccn4)c3)c1)CCC2 [PJL-76],0%
10.9 µM,24%,44 µM,–,O=C(O)c1cc(F)ccc1NS(=O)(=O)c1cnn(-c2cccc(C(F)(F)F)c2)c1 [PJL-84],47%
19.8 µM,16%,97 µM,–,CC(C)n1nnc(-c2ccc(O)c(NC(=O)Cc3ccccc3C(=O)O)c2)n1 [PJL-208],0%
5.6 µM,11%,225 µM,–,COc1ccc(NC(=O)c2ccc(NS(=O)(=O)c3cc(C(=O)O)ccc3OC)cc2)cc1 [PJS-31],0%
2 µM,31%,6.7 µM,–,O=C(Nc1nccs1)c1cccc(NC(=O)c2ccccc2-c2ccccc2C(=O)O)c1 [PJL-62],0%
7.6 µM,38%,15.3 µM,–,COc1ccc(-c2csc(NC(=O)c3ncccc3-c3ccccc3C(=O)O)n2)cc1 [PJL-127],100%
5.3 µM,21%,–,–,O=C(Cc1ccccc1C(=O)O)Nc1cccc(C(=O)Nc2nccs2)c1 [PJL-93],0%
11.6 µM,17%,63.9 µM,–,O=C(O)c1cccc(NC2=C(Cl)C(=O)N(c3cc(Cl)ccc3Cl)C2=O)c1 [PJL-211],72%
3 µM,58%,2.1 µM,–,COc1ccc(-c2csc(NC(=O)c3cc(C)ccc3-c3ccccc3C(=O)O)n2)cc1 [PJL-126],93%
3.5 µM,13%,132 µM,–,O=C(O)c1cc2c(c(S(=O)(=O)Nc3cc(Cl)c(Cl)c(C(=O)O)c3)c1)CCC2 [PJL-29],11%
28 µM,23%,32 µM,–,O=C(O)c1cc(F)ccc1NS(=O)(=O)c1cnc(-c2ccccc2)o1 [PJL-81],15%
6.6 µM,11%,300 µM,–,COc1ccc(C(=O)O)cc1S(=O)(=O)Nc1ccc(NC(=O)CC(C)C)cc1 [PJL-30],0%
8.6 µM,17%,30.8 µM,–,CCc1nnc(NC(=O)c2ccccc2-c2ccccc2C(=O)O)s1 [PJL-66],0%
9.9 µM,17%,87 µM,–,Cc1ccnn1-c1cccc(NS(=O)(=O)c2cc(C(=O)O)cc3c2CCC3)c1 [PJL-43],6%
9.9 µM,17%,74 µM,–,O=C(O)c1ccccc1NS(=O)(=O)c1cnc(-c2ccccc2)s1 [PJL-83],0%
4.8 µM,19%,34 µM,showed direct binding to AtOASS by ITC,O=C(O)c1cc(F)ccc1NS(=O)(=O)c1cnc(-c2ccc(F)cc2)s1 [PJL-41],85%
1.48 µM,34%,6.3 µM,–,O=C(Nc1cccc(O)c1)c1cccc(NC(=O)c2ccccc2-c2ccccc2C(=O)O)c1 [PJL-63],12%
0.94 µM,45%,1.9 µM,–,Cc1cc(-c2cc(NC(=O)c3ccccc3-c3ccccc3C(=O)O)[nH]n2)ccc1OCCN1CCOCC1 [PJL-106],0%
10.1 µM,12%,127 µM,–,O=C(O)c1cc2c(c(S(=O)(=O)Nc3cccc(NC(=O)C4CC4)c3)c1)CCC2 [PJL-39],18%
3.4 µM,23%,12.8 µM,–,O=C(O)c1ccccc1-c1ccccc1C(=O)Nc1cccc(O)c1 [PJL-64],23%
9.37 µM,21%,73 µM,–,O=C(O)c1cccc(NC2=C(Cl)C(=O)N(c3ccc(Cl)c(Cl)c3)C2=O)c1 [PJL-103],0%
2.3 µM,43%,5.99 µM,–,COc1ccc(C(=O)O)c(-c2ccccc2C(=O)Nc2nc(-c3ccc(Cl)cc3Cl)cs2)c1 [PJL-118],47%
